Laboratory results as given in US20230295729A1, “METHODS FOR DETECTING AND TREATING PROGESTERONE-RESISTANT INFERTILITY” (The Feinstein Institutes for Medical Research, priority 2022, published 2023).
“Also recorded” adds a separate entry of the source.

What was measured:
[1] = tested on: endometrial stromal cells (eSCs); assay: Decidualization of menstrual effluent-derived eSCs induced by cAMP ± MPA, IGFBP1 and PRL by ELISA; format: cell-based, human; conditions: for cAMP-induced decidualization (IGFBP1 and PRL production): quercetin 25 μM 4 hr before cAMP 0.5 mM for 48 hr, vs vehicle; for cAMP+MPA-induced decidualization (IGFBP1 and PRL production): control- and case-eSCs, quercetin 25 μM 4 hr before cAMP 0.5 mM + 0.1 μM MPA for 48 hr; for potentiation of decidualization: comparators tested in the same eSC system as quercetin
Procedure: Methods: eSCs were isolated from menstrual effluent (ME) obtained from healthy controls and surgically diagnosed endometriosis cases. To induce decidualization, passage 2-3 eSCs DMEM 2% MSC-FBS were treated with dibutryl-cAMP (cAMP, 0.5 mM)±10^-7 M medroxyprogesterone acetate (MPA) for 48 hr. eSCs were pre-treated with vehicle or quercetin (25 μM) 4 hr prior to decidualization. PRL and IGFBP1 protein and mRNA in the culture supernatants and cells, respectively, were assessed by ELISA and RT-qPCR, respectively. Endometrial stromal cells (eSCs) were isolated and grown in DMEM 10% MSC-FBS, PSQ, normocin. Passage 2-3 eSCs were split into 96 well plates or 6-well plates in DMEM 10% MSC-FBS. After overnight culture in DMEM 2% MSC-FBS, decidualization of eSCs was induced after exposure to vehicle or 25 μM quercetin for 4 hrs, followed by 0.5 mM cAMP±0.1 μM MPA for 48 hrs. Decidualization was assessed by measuring IGFBP1 and/or PRL levels in the culture supernatants by ELISA. Progesterone sensitivity was also assessed by measuring progesterone-induced genes. Two sample t tests (unpaired or paired) were used to determine significance. Assessment of progesterone sensitive genes eSCs were treated vehicle or 25 μM quercetin for 4h followed by veh or 0.5 mM cAMP+0.1 uM MPA for 6h; RNA was isolated; and qPCR was performed for the P4 sensitives gene: HAND2, or other P4 target genes.
Roughly 30-50% of endometriosis patient experience infertility. The cause of endometriosis and its link to infertility is not completely understood. It has been shown that endometrial stromal cells (eSCs) from patients with endometriosis show decreased decidualization, a progesterone-driven process critical for implantation. Quercetin is a flavonoid with anti-inflammatory and immunomodulatory activities. […] In addition, quercetin improves infertility in patients with polycystic ovary syndrome (PCOS). We assessed the effect of quercetin on decidualization and progesterone sensitivity using eSCs. Methods: eSCs were isolated from menstrual effluent (ME) obtained from healthy controls and surgically diagnosed endometriosis cases. To induce decidualization, passage 2-3 eSCs were treated with dibutryl-cAMP (cAMP, 0.25-0.5 mM)±10^-7M medroxyprogesterone acetate (MPA) for 48 hr. eSCs were pre-treated with vehicle or quercetin (25 μM) 4 hr prior to decidualization. PRL and IGFBP1 protein and mRNA in the culture supernatants and cells, respectively, were assessed by ELISA and RT-qPCR, respectively. Progesterone sensitivity was also assessed by measuring progesterone-induced genes, PLZF and IHH. Two sample t tests (unpaired or paired) were used to determine significance.

[2] = tested on: menstrual effluent-derived eSCs (ME-eSCs); assay: MPA-stimulated gene expression in ME-eSCs of endometriosis cases and controls (qPCR, scRNA-seq); format: cell-based, human
Procedure: Methods: Low passage (p2-3) menstrual effluent-derived eSCs (ME-eSCs) obtained from women with confirmed endometriosis or healthy controls were stimulated with vehicle or MPA, a stable P4 analogue. qPCR and single cell RNA-seq (scRNA-seq, n=4 controls and 4 cases) were used to measure P4-induced gene expression and identify dysregulated pathways. Subcellular localization of PR isoforms and the PR chaperone protein, FKBP52, was assessed using immunofluorescent microscopy and western blotting of total, nuclear, and cytoplasmic preparations of ME-eSCs±MPA stimulation.

[3] = tested on: patients with polycystic ovary syndrome (PCOS); conditions: cited from earlier work
[4] = tested on: endometrial stromal cells; assay: SASP protein expression in endometrial stromal cells by western blotting; format: cell-based, human; conditions: quercetin 25 μM vs vehicle, DMEM 2% FBS, 2 days, confluent cells; normalised to GAPDH
Procedure: FIGS. 4A-4B: Quercetin-treatment of endometrial stromal cells reduces the senescence-associated secretory phenotype (SASP) and the expression SASP proteins. (4A) Treatment of confluent endometrial stromal cells with vehicle (Veh) vs. quercetin (25 μM, Q+) in DMEM 2% FBS for 2 days alters the expression of SASP proteins (or SASPs, IL-1β, TNF-membrane form [TNF-MF], TNF-soluble form [TNF-SF], MMP3, and Lamin B1 [LamB1*] vs. GAPDH [housekeeping protein for normalization]) by endometrial stromal cells, as determined by western blotting. Relative molecular weight markers (MWM) are shown on the left. (4B) Quantification of Veh-treated vs. Q-treated protein bands are shown in 4B. *Note: All proteins are positive SASPs (increased protein expression positively correlates with senescence), except LAMB1, which is lost with the senescence phenotype. Quercetin reduces senescence-associated secretory phenotype or SASP.

endometrial implants = conditions: rat model of endometriosis; cited from earlier work
[5] = tested on: P4 target genes (HAND2, PLZF, IHH) in endometrial stromal cells; assay: Progesterone (P4) target gene expression in eSCs by qPCR after quercetin pre-treatment; format: cell-based, human; conditions: control- and case-eSCs, p<0.05; for HAND2 mRNA expression (P4 target gene): quercetin 25 μM 4 h, then vehicle or 0.5 mM cAMP + 0.1 μM MPA 6 h, qPCR
Procedure: Endometrial stromal cells (eSCs) were isolated and grown in DMEM 10% MSC-FBS, PSQ, normocin. Passage 2-3 eSCs were split into 96 well plates or 6-well plates in DMEM 10% MSC-FBS. After overnight culture in DMEM 2% MSC-FBS, decidualization of eSCs was induced after exposure to vehicle or 25 μM quercetin for 4 hrs, followed by 0.5 mM cAMP±0.1 μM MPA for 48 hrs. […] Progesterone sensitivity was also assessed by measuring progesterone-induced genes. Two sample t tests (unpaired or paired) were used to determine significance. Assessment of progesterone sensitive genes eSCs were treated vehicle or 25 μM quercetin for 4h followed by veh or 0.5 mM cAMP+0.1 uM MPA for 6h; RNA was isolated; and qPCR was performed for the P4 sensitives gene: HAND2, or other P4 target genes. […] Progesterone sensitivity was also assessed by measuring progesterone-induced genes, PLZF and IHH.

[6] = ME-eSCs from cases vs. controls, qPCR
[7] = scRNA-seq, n=4 controls and 4 cases

## CC(=O)O[C@]1(C(C)=O)CC[C@H]2[C@@H]3C[C@H](C)C4=CC(=O)CC[C@]4(C)[C@H]3CC[C@@]21C [MPA, medroxyprogesterone acetate]
[1]; control-eSCs, 0.1 μM MPA with cAMP, 48 hr
  potentiation of cAMP-induced decidualization by addition of MPA: potentiates
[2]; [6]
  MPA-stimulated IHH gene expression: significantly blunted
  MPA-stimulated PLZF gene expression: significantly blunted
[2]; [7]
  MPA-induced expression of CEBPD, DKK1, FABP4, MGP, and NNMT: significantly unregulated in controls only
  MPA-induced expression of IGFBP5, MALAT1, DIO2, and KRT17: significantly downregulated in controls only

## O=c1c(O)c(-c2ccc(O)c(O)c2)oc2cc(O)cc(O)c12 [Quercetin, quercetin]
[1]; case-eSCs (endometriosis), p<0.05
  cAMP-induced decidualization (IGFBP1 and PRL production): significantly enhanced; also recorded: increased
[1]; p<0.05
  cAMP+MPA-induced decidualization (IGFBP1 and PRL production): increased
[1]; p<0.05, listed as quercetin
  cAMP+MPA-induced decidualization (IGFBP1 and PRL production): significantly enhanced; also recorded: further enhances
[1]; control-eSCs, p<0.02
  cAMP-induced decidualization (IGFBP1 and PRL production): significantly enhanced; also recorded: increased
[3]
  infertility in PCOS patients: improves
[4]
  senescence-associated secretory phenotype (SASP) and expression of SASP proteins (IL-1β, TNF-MF, TNF-SF, MMP3, Lamin B1): reduces
Endometrial implants
  anti-inflammatory effects: exerted anti-inflammatory effects
  growth of endometrial implants: inhibited
[5]
  HAND2 mRNA expression (P4 target gene): increases
[5]; listed as quercetin
  HAND2 mRNA expression (P4 target gene): significantly increased over vehicle
[5]; quercetin 25 μM vs vehicle
  MPA-induced IHH mRNA expression: significantly increased over vehicle
  MPA-induced PLZF mRNA expression: significantly increased over vehicle

## O=C(O)c1ccccc1O [SA, salicylic acid, reference compound]
[1]
  potentiation of decidualization: did not potentiate decidualization

## CC(C)Cc1ccc(C(C)C(=O)O)cc1 (stereo not shown) [ibuprofen, reference compound]
[1]
  potentiation of decidualization: did not potentiate decidualization
